Experimental data: patent US7795220B2, “Conformationally constrained parathyroid hormones with alpha-helix stabilizers” (The General Hospital Corporation, priority 2003, dated 2010)
Non-standard residues stand in square brackets, D forms with d. Residues, ends and D or L forms follow the SMILES beside them. hArg = N=C(N)NCCCC[C@H](N)C(=O)O; Ac5c = NC1(C(=O)O)CCCC1; Aib = CC(C)(N)C(=O)O

Legend:
[1] = tested on: P1R (recombinant P1R chimera) in HKRK-B28 cells; assay: cAMP stimulation in HKRK-B28 cells; type: cell-based, opposum/rat chimera
From the text: (§1) Cell Culture. The cell line HKRK-B28 (Takasu, H., et al., J. Bone Miner. Res. 14:11-20 (1999)) was derived from the porcine kidney cell line, LLC-PK1 by stable transfection with plasmid DNA encoding a recombinant P1R chimera comprised of the opposum P1R from the N-terminus to the mid region of TM3 and the rat P1R from the mid region of TM3 to the C-terminus. The surface density of the P1R in these cells is ˜280,000 receptors per cell. The clonal cell line LdelNt-2 was derived from LLC-PK, cells via stable transfection with a plasmid encoding P1R-delNt, a recombinant human PTH-1 receptor construct in which most of the amino-terminal extracellular domain is deleted. These cells, as well as COS-7 cells and SaOS-2-B10 cells, were cultured at […] in T-75 flasks ([…]) in Dulbecco's modified Eagle's medium (DMEM) supplemented with fetal bovine serum (10%), penicillin G (20 units/ml), streptomycin sulfate (20 μg/ml) and amphotericin B (0.05 μg/ml) in a humidified atmosphere containing 5% CO2. Stock solutions of EGTA/trypsin and antibiotics were from GLBCO; fetal bovine serum was from Hyclone Laboratories (Logan, Utah). COS-7 cells sub-cultured in 24-well plates were transfected with plasmid DNA (200 ng per well) encoding the wild-type human P1R or truncated human P1R deleted for residues (24-181) (Shimizu, M., et al., J. Biol. Chem. 275:21836-21843 (2000)) that was purified by cesium chloride/ethidium bromide density gradient centrifugation, and FuGENE 6 transfection reagent (Roche Indianapolis Ind.) according to the manufacturer's recommended procedure. All cells, in 24-well plates, were treated with fresh media and shifted to 33° C. for 12 to 24 h prior to assay.
cAMP Stimulation. Stimulation of cells with peptide analogs was performed in 24-well plates. Cells were rinsed with 0.5 mL of binding buffer (50 mM Tris-HCl, 100 mM NaCl, 5 mM KCl, 2 mM CaCl2, 5% heat-inactivated horse serum, 0.5% fetal bovine serum, adjusted to pH 7.5 with HCl) and treated with 200 μL of cAMP assay buffer (Delbecco's modified Eagle's medium containing 2 mM 3-isobutyl-1-methylxanthine, 1 mg/mL bovine serum albumin, 35 mM Hepes-NaOH, pH 7.4) and 100 μL of binding buffer containing varying amounts of peptide analog (final volume=300 μL). The medium was removed after incubation for 30 to 60 minutes at room temperature, and the cells were frozen on dry ice, lysed with 0.5 mL 50 mM HCl, and refrozen ([…]). The cAMP content of the diluted lysate was determined by radioimmunoassay. The EC50 response values were calculated using nonlinear regression (see below).
Data Calculation. Calculations were performed using Microsoft® Excel. Nonlinear regression analyses of binding and cAMP dose-response data were performed using the four-parameter equation: yp=Min+[(Max−Min)/(1+(IC50/x)^slope)]. The Excel Solver function was utilized for parameter optimization, as described previously (Carter, P. H., et al., Endocrinology 140: 4972-4981 (1999); Bowen, W. P., and Jerman, J. C., Trends in Pharmacol. Sci. 16: 413-417 (1995)). Differences between paired data sets were statistically evaluated using a one-tailed Student's t-test, assuming unequal variances for the two sets.

[2] = target: T1, P1R (recombinant P1R chimera) in HKRK-B28 cells (UniProt P25107+P25961, A364S/A509S/A517P/A524T/DEL519-521/E344G/G506A/H528S/I365V/I416T/I429T/K402R/K465R/L320I/M408V/N352H/S511P/S523T/T335G/T421L/T487S/V367L/V433I); assay: biochemical; type: binding, opposum/rat chimera; conditions: B28 cells
T1 construct: the opposum P1R from the N-terminus to the mid region of TM3; the rat P1R from the mid region of TM3 to the C-terminus; expressed in transfected cells
From the text: as §1
Competition Binding. Binding reactions were performed with HKRK-B28 cells or in COS-7 cells in 24-well plates. The cells were rinsed with 0.5 mL of binding buffer, and then treated successively with 100 μL binding buffer, 100 μL of binding buffer containing various amounts of unlabeled competitor ligand, and 100 μL of binding buffer containing ca. 100,000 cpm of ^125I-[Aib^1,3,Nle^8,Gln^10,Har^11,Ala^12,Trp^14,Arg^19,Tyr^21]rPTH(1-21) (SEQ. ID. NO. 36) (ca. 26 fmol; final volume=300 μL). Incubations were 4 to 6 h at 4° C., at which time near equilibrium conditions were attained. Cells were then placed on ice, the binding medium was removed, and the monolayer was rinsed three times with 0.5 mL of cold binding buffer. The cells were subsequently lysed with 0.5 mL 5N NaOH and counted for radioactivity. For each tracer and in each experiment, the non-specific binding was determined as the radioactivity that bound in the presence of the same unlabeled peptide at a concentration of 1 μM, and was ˜1% of total radioactivity added for each tracer. The maximum specific binding (B0) was the total radioactivity bound in the absence of competing ligand, corrected for nonspecific binding, and for each tracer, ranged from 8% to 20% of the total radioactivity added. Nonlinear regression was used to calculate binding IC50 values (see below). Scatchard transformations of homologous competition binding data derived from studies with 26 fmol of ^125I-[Aib^1,3,Nle^8,Gln^10,Har^11,Ala^12,Trp^14, Arg^19,Tyr^21]rPTH(1-21) (SEQ. ID. NO. 36) were employed for estimations of apparent equilibrium dissociation constant (kDapps) and total number of ligand binding sites (Bmax), assuming a single class of binding sites and equal affinities of the iodinated and non iodinated ligand.
Data Calculation. Calculations were performed using Microsoft® Excel. Nonlinear regression analyses of binding and cAMP dose-response data were performed using the four-parameter equation: yp=Min+[(Max−Min)/(1+(IC50/x)^slope)]. The Excel Solver function was utilized for parameter optimization, as described previously (Carter, P. H., et al., Endocrinology 140: 4972-4981 (1999); Bowen, W. P., and Jerman, J. C., Trends in Pharmacol. Sci. 16: 413-417 (1995)). […]

T1 sequence (P25107+P25961 fused with the stated changes): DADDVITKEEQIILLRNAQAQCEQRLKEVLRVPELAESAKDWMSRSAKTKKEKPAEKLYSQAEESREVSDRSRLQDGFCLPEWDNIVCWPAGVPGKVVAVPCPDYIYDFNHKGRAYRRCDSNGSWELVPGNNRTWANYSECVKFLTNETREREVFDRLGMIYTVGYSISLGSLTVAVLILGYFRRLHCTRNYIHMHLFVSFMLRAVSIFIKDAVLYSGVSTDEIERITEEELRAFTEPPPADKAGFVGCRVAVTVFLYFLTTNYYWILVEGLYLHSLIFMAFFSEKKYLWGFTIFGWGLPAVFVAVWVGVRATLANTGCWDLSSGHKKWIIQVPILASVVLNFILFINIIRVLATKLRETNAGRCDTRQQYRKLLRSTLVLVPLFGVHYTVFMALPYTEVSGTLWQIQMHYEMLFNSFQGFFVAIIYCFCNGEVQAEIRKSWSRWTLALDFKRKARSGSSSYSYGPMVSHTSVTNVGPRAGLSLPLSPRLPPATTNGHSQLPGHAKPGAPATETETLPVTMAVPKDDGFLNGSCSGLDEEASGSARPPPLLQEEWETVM

## CC[C@H](C)[C@H](NC(=O)[C@H](CCC(=O)O)NC(=O)C(C)(C)NC(=O)[C@@H](NC(=O)C1(N)CCCC1)C(C)C)C(=O)N[C@@H](CCC(N)=O)C(=O)N[C@@H](CC(C)C)C(=O)N[C@@H](CCSC)C(=O)N[C@@H](Cc1c[nH]cn1)C(=O)N[C@@H](CCC(N)=O)C(=O)N[C@@H](CCCCNC(=N)N)C(=O)N[C@@H](C)C(=O)N[C@@H](CCCCN)C(=O)N[C@@H](Cc1c[nH]c2ccccc12)C(N)=O [[Ac5c^1,Aib^3,M]PTH(1-14), [Ac5c^1,Aib^3,Gln^10,Har^11,Ala^12,Trp^14]PTH(1-14)NH2] (H-[Ac5c]V[Aib]EIQLMHQ[hArg]AKW-NH2)
[1]
  potency for stimulating adenylyl cyclase relative to [Aib1,3,M]PTH(1-14): 2 fold
[1]; HKRK-B28 cells, intracellular cAMP accumulation, read-out: cAMP-stimulating potency (EC50)
  EC50: 0.9 nM
[1]; HKRK-B28 cells, peptide at 10 nM
  increase in cAMP levels relative to basal: 38 fold
[2]
  potency for inhibiting tracer binding relative to [Aib1,3,M]PTH(1-14): 2 fold
